Measurements taken from paper PMC11674187, “Inhibitory Effects of Cenobamate on Multiple Human Cardiac Ion Channels and Possible Arrhythmogenic Consequences” (Biomolecules, 2024).
Where “and” joins values, the source holds several entries; their conditions need not be identical. Equal values may be shown once. Read-outs that look alike come from different tables or passages of the source.

Columns and labels:
hKv11.1 (hERG), IKr = biological target: T1, hKv11.1 (hERG), IKr (Homo sapiens, UniProt Q12809); test: Whole-cell patch-clamp on HEK293T cells, IKr; assay type: cell-based; settings: human, HEK293T cells expressing hKv11.1 (hERG); for inhibition at 200 µM: pH 7.4, cenobamate 200 µM
T1 construct: host or cells: HEK293T
T1 sequence (Q12809 whole entry): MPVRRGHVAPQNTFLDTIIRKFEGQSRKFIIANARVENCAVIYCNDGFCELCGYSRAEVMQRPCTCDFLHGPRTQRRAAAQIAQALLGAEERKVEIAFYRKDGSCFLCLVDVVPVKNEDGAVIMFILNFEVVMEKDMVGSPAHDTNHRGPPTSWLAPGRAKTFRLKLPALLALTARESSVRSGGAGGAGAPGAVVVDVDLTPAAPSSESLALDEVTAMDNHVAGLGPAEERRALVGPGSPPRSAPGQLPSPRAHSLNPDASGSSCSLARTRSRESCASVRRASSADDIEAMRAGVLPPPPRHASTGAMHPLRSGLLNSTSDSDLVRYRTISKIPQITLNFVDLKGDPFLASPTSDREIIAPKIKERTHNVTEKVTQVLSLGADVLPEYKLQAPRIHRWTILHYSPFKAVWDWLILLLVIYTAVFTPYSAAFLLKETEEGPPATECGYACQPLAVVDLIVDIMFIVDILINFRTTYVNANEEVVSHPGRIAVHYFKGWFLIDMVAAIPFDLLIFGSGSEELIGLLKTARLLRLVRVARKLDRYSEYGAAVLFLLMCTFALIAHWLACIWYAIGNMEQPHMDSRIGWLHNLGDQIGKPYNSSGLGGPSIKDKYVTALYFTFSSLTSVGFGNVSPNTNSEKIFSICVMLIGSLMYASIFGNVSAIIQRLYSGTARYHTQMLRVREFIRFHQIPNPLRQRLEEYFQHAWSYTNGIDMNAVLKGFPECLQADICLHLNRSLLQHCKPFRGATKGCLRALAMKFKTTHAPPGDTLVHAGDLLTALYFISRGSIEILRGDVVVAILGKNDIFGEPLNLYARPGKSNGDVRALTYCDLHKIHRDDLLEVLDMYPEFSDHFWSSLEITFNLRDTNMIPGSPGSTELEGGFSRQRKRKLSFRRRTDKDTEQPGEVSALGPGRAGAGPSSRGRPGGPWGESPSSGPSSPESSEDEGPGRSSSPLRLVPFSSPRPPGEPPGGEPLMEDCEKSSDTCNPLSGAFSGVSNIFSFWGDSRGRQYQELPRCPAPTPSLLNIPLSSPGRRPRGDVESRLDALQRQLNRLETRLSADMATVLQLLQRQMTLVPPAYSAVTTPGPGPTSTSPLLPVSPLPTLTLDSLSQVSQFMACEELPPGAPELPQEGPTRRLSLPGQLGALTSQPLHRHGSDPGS
Procedure: (§1) Experiments were performed on HEK293T cell lines with persistent/inducible expression of different human cardiac ion channel isoforms: hNav1.5 and hKv7.1 + minK (Anaxon AG, Bern, Switzerland), hCav1.2 (α1c + β2 + α2δ1) (B’SYS GmbH, Witterswil, Switzerland), and hKv11.1 (hERG) (Cytocentrics Bioscience GmbH, Rostock, Germany). The cell lines were grown in standard conditions (37 °C, 5% CO2, 90% humidity) in DMEM:F12 medium (D8900, Sigma-Aldrich, Burlington, MA, USA) buffered with 15 mM HEPES, containing 3.15 g/L D-glucose and 0.055 g/L sodium pyruvate, supplemented with 1.2 g/L sodium bicarbonate, 10% fetal bovine serum (F2442, Sigma-Aldrich, Burlington, MA, USA), 2 mM L-glutamine (G7513, Sigma-Aldrich, Burlington, MA, USA), 1% penicillin–streptomycin (P4333, Sigma-Aldrich, Burlington, MA, USA), and with specific antibiotics for selection of transfected cells or induction of gene expression according to manufacturers’ instructions. The medium was changed every 2–3 days and the cells were passed weekly upon detachment with trypsin–EDTA solution. All cell culture media and solutions were sterile filtered with 0.22 μm polyvinylidene fluoride filters. Ncyte® vCardiomyocytes (Ncardia, Leiden, The Netherlands) were cultured in 24-well plates precoated with bovine fibronectin, following manufacturer’s instructions. For the experiments, cardiomyocytes were detached as described previously and plated on ϕ 10 mm glass coverslips, like the other cell lines.
(§2) Manual whole-cell patch-clamp experiments were performed at room temperature, with equipment as described in previous studies. Pipettes were pulled from Clark borosilicate glass capillaries with inner filament (GC150F-10, Harvard Apparatus, Holliston, MA, USA) and had typical resistances of 2–3 MΩ. Recordings were performed with a WPC-100 resistive feedback amplifier (ESF electronic, Göttingen, Germany) or an Axopatch 200B amplifier (Axon Instruments—Molecular Devices, San Jose, CA, USA) connected to a Digidata 1322A interface driven by the pClamp 8.2 Clampex module (Axon Instruments, part of Molecular Devices, San Jose, CA, USA). For different types of ion channel, we applied specific voltage-clamp protocols as follows: • - For hERG, a standard two-step activation protocol was used: holding at −70 mV, a 100 ms step at −50 mV used as current reference for measurements, a 2 s depolarizing step at +40 mV, followed by a 2 s step at −50 mV to elicit the peak hERG current by rapid recovery from inactivation, repeated sweeps at 10 s intervals, plus specific protocols to assess the voltage dependence of activation and inactivation, as described in Thomet et al., 2021 [11]. • - For hKv7.1 + minK, a general two-step activation protocol was used: holding at −110 mV, a 250 ms step at −80 mV with a brief (50 ms) step at −90 mV at the middle to monitor seal quality, a 3000 ms depolarizing step at +60 mV, followed by a 1000 ms step at −50 mV; repeated sweeps at 20 s intervals. • - For hCav1.2, a pharmacology protocol with holding at −80 mV, a first 100 ms step at −50 mV and a second 200 ms step at 0 mV, repeated sweeps at 20 s intervals with drug application after 5 sweeps if current levels were steady, plus an activation–inactivation protocol with holding at −80 mV, 1000 ms depolarizing steps from −80 to +50 mV in 10 mV increments, followed by 250 ms steps at +10 mV and a return to −80 mV; 14 sweeps at 20 s intervals. • - For hNav1.5, multiple voltage protocols were used, including the following: • - A standard pharmacology protocol with holding at −90 mV, a 20 ms step at −110 mV for seal monitoring, a 40 ms activation step at −10 mV, and repeated sweeps at 1 s intervals. […]

hKv11.1 (hERG) = biological target: T2, hKv11.1 (hERG) (Homo sapiens, UniProt Q12809); test: Whole-cell patch-clamp on HEK293T cells, IKr; assay type: cell-based
T2 construct: host or cells: HEK293T
T2 sequence (Q12809 whole entry): as above
Procedure: as §1, §2

[1] = ref https://go.drugbank.com/drugs/DB06119; cited from earlier work
[2] = mouse; ref [5] p.10; cited from earlier work
hNav1.7 = test system: hNav1.7; set-up: method as in ref [5] p. 8; settings: hNav1.7 in HEK293 cells, ref [5] p. 8, cited from earlier work

NC(=O)O[C@@H](Cn1ncnn1)c1ccccc1Cl [cenobamate]
inhibition at 20 µM (hKv11.1 (hERG), IKr; pH 7.4, cenobamate 20 µM, vs. 4.1% in control experiments, read-out: average peak IKr (hERG) inhibition): 5.3 ± 1.8%
inhibition at 200 µM (hKv11.1 (hERG), IKr; read-out: % IKr inhibition, single experiments (Table S7)): 8.01%
inhibition at 200 µM (hKv11.1 (hERG), IKr; read-out: average peak IKr inhibition corrected for control (10.97 − 4.1)): 6.87%
inhibition at 200 µM (hKv11.1 (hERG), IKr; step at -50 mV, read-out: relative peak IKr inhibition, mean): 11 ± 3.11%
IC50 (hKv11.1 (hERG)): > 200 µM
% IKr inhibition, single experiments (Table S7) (hKv11.1 (hERG); cenobamate 200 µM): 14.26% and 12.93% and 7.32% and 12.35%
logP [1]: 1.66
physiological charge [1]: 0
strongest acidic pKa [1]: 14.28
strongest basic pKa [1]: −1.7
protein binding [2]: 43.2%
IC50 (hNav1.7; read-out: IC50 on late (persistent) INa): 41.8 µM
IC50 (hNav1.7; read-out: estimated IC50 on peak (transient) Na+ current): > 500 µM
